Drawing on patent US4581165A, “Anti-diabetic compounds” (Eli Lilly and Company, priority 1984, dated 1986), this text covers ED50 for two substances.

The test system of the assay is isolated rat adipocytes. As to the kind of experiment: Biological Activity in Isolated Rat Adipocytes (incorporation of 2-3H-glucose in total fat cell lipid). The class given is cell-based. Particulars: 2-3H-glucose incorporation in total fat cell lipid, 37° for 1 hr, mean±SEM. The procedure: Adipocytes were prepared from epididymal fat pads by a modification (Huber, supra) of the collagenase digestion procedure of Rodbell, supra. Krebs-Ringer-HEPES (KRH) buffer, pH 7.4, containing 4% bovine serum albumin and 0.55 mM glucose was used in all isolation and incubation steps.
Biological activity was assessed according to the method of Moody, A. J., Stan, M. A., Stan, M., and Glieman, J., Horm. Metab. Res. 6, 12-16 (1974) by monitoring the incorporation of 2-^3 H-glucose in total fat cell lipid. […] Radioactivity was determined in a Searle Isocap 300 liquid scintillation counter at an efficiency of approximately 30%. Blanks were prepared in which the scintillation fluid was added to the vials prior to the addition of cells. The average counts obtained from these vials were subtracted from those observed in all other samples.
Competitive binding curves and biological activity dose-response curves were analyzed using the PREFIT and ALLFIT programs [DeLean, A., Munson, P. J., and Rodbard, D., Am. J. Physiol. 235, E97-E102 (1978)] based on a four-parameter logistic model. These analyses indicated the concentration of insulin or proinsulin necessary to produce a half-maximal response, as well as the maximal and minimal values. All values are presented as the mean±SEM.

For the substance “Human Proinsulin: human proinsulin, starting material and reference; relative potency set to 1”, the ED50 is given as 1.24 ± 0.2 × 10^-8 M. To “Human Insulin: human insulin, reference in the binding and activity assays” belongs 5.32 ± 0.7 × 10^-11 M.
